From PMC11758394, “VCP downstream metabolite glycerol-3-phosphate (G3P) inhibits CD8^+T cells function in the HCC microenvironment” (Signal Transduction and Targeted Therapy, 2025)

Key:
LCK = molecular target: T1, LCK (Homo sapiens, UniProt P06239); assay: SPR (Biacore 8K, protein on CM5 chip); also ITC; type: binding; details: PBS; value not in text
T1 construct: purified full-length LCK

region LCK(240-509AAs) = molecular target: T2, region LCK(240-509AAs) (Homo sapiens, UniProt P06239); assay: SPR (Biacore 8K, protein on CM5 chip); also ITC; details: PBS; value not in text; binding of this fragment inferred because it contains 330-509
T2 construct: purified fragment 240-509 (kinase domain)
T2 sequence (P06239 240-509): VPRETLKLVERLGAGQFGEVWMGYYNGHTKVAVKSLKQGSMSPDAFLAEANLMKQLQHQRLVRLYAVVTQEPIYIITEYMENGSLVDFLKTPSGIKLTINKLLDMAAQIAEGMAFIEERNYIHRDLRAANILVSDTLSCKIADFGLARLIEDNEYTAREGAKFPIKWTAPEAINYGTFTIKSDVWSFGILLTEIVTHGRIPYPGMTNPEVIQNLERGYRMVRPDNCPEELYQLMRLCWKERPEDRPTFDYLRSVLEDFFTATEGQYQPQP

T1 sequence (P06239 whole entry): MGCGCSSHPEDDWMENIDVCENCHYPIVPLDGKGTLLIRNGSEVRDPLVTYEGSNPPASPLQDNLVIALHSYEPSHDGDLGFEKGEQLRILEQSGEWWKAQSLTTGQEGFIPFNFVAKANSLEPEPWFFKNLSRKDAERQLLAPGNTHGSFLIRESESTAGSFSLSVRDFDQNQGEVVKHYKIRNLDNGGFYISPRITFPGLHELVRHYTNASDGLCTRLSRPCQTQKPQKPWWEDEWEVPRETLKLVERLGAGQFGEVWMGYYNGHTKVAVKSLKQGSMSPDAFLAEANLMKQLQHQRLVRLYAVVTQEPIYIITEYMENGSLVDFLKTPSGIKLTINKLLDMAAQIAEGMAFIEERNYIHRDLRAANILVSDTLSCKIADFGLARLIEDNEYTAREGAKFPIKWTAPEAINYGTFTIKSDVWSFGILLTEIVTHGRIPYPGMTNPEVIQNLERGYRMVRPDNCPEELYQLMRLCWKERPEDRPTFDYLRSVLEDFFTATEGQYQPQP

For `O=P(O)(O)OC[C@H](O)CO` [G3P], the Kd (LCK) was “we demonstrated the interaction of LCK and G3P using surface plasmon resonance (BIAcore) experiment” and the Kd (region LCK(240-509AAs)) was “BIAcore measurement of the interaction between G3P and the purified region”.
